Here are results for nine compounds from paper PMC3677530 (Analytical biochemistry, 2013).

Assay [1] concerns the target human cannabinoid CB1 receptor (Homo sapiens, UniProt P21554). The experiment in a line: cell-based. In kind it is cell-based. As to conditions: for CB2/CB1: ratio of the IC50 values CB2/CB1, plate-based assay.
Assay [2] has as its target human cannabinoid CB2 receptor (Homo sapiens, UniProt P34972). Put plainly: cell-based. As to conditions: for inhibition of internalization (CB2): 2 nM [3H]-CP55,940, CHO-CB2.
In another assay the test system is CB2 receptor. As to conditions: ref Tam et al [25]; cited from earlier work.

Several values for one entry are separate records, joined by “and”; a condition that tells them apart may be missing. Equal values may be shown once. Read-outs that look alike come from different tables or passages of the source.

Chain of human cannabinoid CB1 receptor (P21554 whole entry): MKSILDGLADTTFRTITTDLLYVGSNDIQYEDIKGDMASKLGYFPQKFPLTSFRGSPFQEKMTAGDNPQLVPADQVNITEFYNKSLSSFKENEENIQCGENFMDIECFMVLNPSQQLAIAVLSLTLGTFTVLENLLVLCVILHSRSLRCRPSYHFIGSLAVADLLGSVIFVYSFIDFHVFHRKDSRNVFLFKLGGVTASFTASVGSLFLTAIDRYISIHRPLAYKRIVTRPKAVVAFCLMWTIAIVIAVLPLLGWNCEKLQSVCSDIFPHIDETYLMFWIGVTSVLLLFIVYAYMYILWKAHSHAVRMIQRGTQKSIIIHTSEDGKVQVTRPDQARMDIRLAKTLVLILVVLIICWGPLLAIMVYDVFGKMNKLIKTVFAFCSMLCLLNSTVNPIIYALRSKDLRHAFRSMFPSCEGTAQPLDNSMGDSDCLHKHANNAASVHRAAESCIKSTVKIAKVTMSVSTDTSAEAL
Chain of human cannabinoid CB2 receptor (P34972 whole entry): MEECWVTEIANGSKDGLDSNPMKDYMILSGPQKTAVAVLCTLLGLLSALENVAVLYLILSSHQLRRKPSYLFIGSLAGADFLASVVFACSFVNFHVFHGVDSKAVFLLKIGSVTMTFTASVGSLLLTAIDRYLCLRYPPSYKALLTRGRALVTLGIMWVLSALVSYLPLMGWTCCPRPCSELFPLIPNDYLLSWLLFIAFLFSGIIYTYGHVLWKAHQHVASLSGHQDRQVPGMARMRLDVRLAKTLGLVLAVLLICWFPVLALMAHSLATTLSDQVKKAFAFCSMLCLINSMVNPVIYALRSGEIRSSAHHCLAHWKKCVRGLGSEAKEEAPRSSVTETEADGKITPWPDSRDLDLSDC

Regarding `CCCCCn1cc(C(=O)C23CC4CC(CC(C4)C2)C3)c2ccccc21` [AB001, 3-[(adamantan-1-yl)carbonyl]-1-pentylindole], in assay [1], half-maximal inhibition (IC50) was put at 29.5 ± 2.23 nM, the “inhibition of internalization (CB1)” value is 32.6% and the CB2/CB1 is recorded as 58. In addition, the “inhibition of internalization (CB2)” value in assay [2] is given as 30.3%.
On to `Cc1c(C(=O)NN2CCCCC2)nn(-c2ccc(Cl)cc2Cl)c1-c1ccc(I)cc1` [AM251], for which, in assay [2], the “inhibition of internalization (CB2)” value is given as 60.5%.
`Cc1c(C(=O)NN2CCOCC2)nn(-c2ccc(Cl)cc2Cl)c1-c1ccc(I)cc1` [AM281]: the IC50 in assay [1] (read-out: CB1 (IC50 ±SD)) turned out to be 9.91 ± 0.99 nM. For the same compound, in assay [2], the “inhibition of internalization (CB2)” value is 44.2%.
For `COc1ccc(C(=O)c2c(C)n(CCN3CCOCC3)c3cc(I)ccc23)cc1` [AM630], the “inhibition of internalization (CB2)” value in assay [2] is on record as 51.4%.
For the compound `Cc1c(C(=O)NN2CCS(=O)(=O)CC2)nn(-c2ccc(Cl)cc2Cl)c1-c1ccc(C#CCCC#N)cc1` [AM6545], in assay [1], the “inhibition of internalization (CB1)” value is 43.7% and the CB2/CB1 is 309. Moreover, in assay [1] (read-out: CB1 (IC50 ±SD)), the IC50 amounted to 4.2 ± 0.24 nM. The “inhibition of internalization (CB2)” value in assay [2] amounted to 50.7%.
Turning to `C[C@@]12CC[C@@H]3[C@@](CC[C@H]4[C@@]3(C)CCC[C@@]4(C)C(=O)O)(CC1=O)C2` [Isosteviol], in assay [1], the IC50 was 37.5 ± 6.9 nM and the CB2/CB1 is 0.02. Besides, the “inhibition of internalization (CB1)” value in assay [1] (10 nM [3H]-Win 55,212-2, CHO-CB1) was determined as 71.1%. Also, in assay [2], the IC50 was 0.9 nM and 0.89 nM; the “inhibition of internalization (CB2)” value is recorded as 56.8%. The “selectivity for CB2 (over CB1)” value in assay [2] (plate-based assay) is listed as ~ 40 times.
Regarding `CC(C)[C@H](N=C(NS(=O)(=O)c1ccc(Cl)cc1)N1C[C@H](c2ccccc2)C(c2ccc(Cl)cc2)=N1)C(N)=O` [JD5037-030], in assay [1], the “inhibition of internalization (CB1)” value worked out at 64.4% and the CB2/CB1 was found to be 810. The IC50 in assay [1] (read-out: CB1 (IC50 ±SD)) was 0.2 ± 0.05 nM. Moreover, the “binding affinity for CB2” value in the assay with CB2 receptor was 245 nM. Besides, in assay [2], the “inhibition of internalization (CB2)” value came to 52.1%.
Regarding `Cc1c(C(=O)NN2CCCCC2)nn(-c2ccc(Cl)cc2Cl)c1-c1ccc(Cl)cc1` [Rimonabant], the “inhibition of internalization (CB2)” value in assay [2] stood at 37.7%.
Take `CCCCCn1cc(C(=O)C2C(C)(C)C2(C)C)c2ccccc21` [UR144]: in assay [1], the “inhibition of internalization (CB1)” value stood at 29.6% and the CB2/CB1 is 3. In addition, the “selectivity for CB1 (over CB2)” value in assay [1] (plate-based assay) was “did not observe any selectivity”. The 50% inhibitory concentration (IC50) in assay [1] (read-out: CB1 (IC50 ±SD)) is 27.2 ± 6.6 nM. For the same compound, the “inhibition of internalization (CB2)” value in assay [2] was 38.1%.

As usually defined, the IC50 is the concentration that inhibits the measured activity by half.
